Data on four compounds can be found in US20240299273A1, “MULTIPHASIC LIQUID COMPOSITIONS FOR IMPROVED DEPOSITION OF ACTIVE INGREDIENTS” (SPECIALITY OPERATIONS FRANCE, priority 2021, published 2024).

The nature of data set [1]: Solubility of amphiphilic compound in pure water. The format is physicochemical.
Data set [2] in a line: Compatibility / phase separation of amphiphilic compound with amphiphilic surfactant system in water (microscope, visual appearance). The format is physicochemical. To be noted: concentrations as in the label, SLES alone at 12 wt. %. On the procedure: Further, in certain embodiments, the amphiphilic compound forms a separate phase from the amphiphilic surfactant system when the amphiphilic surfactant system and the amphiphilic compound are combined in water. In this respect, the separate phase is determined by combining from 5 wt. % up to 70 wt. % of a total concentration of the amphiphilic compound and the amphiphilic surfactant system, based on a total weight of the amphiphilic compound, the amphiphilic surfactant system, and water totaling 100 wt. %, with the ratio of the amphiphilic surfactant system to the amphiphilic compound ranging from 99:1 to 50:50, preferably from 90:10 to 60:40, more preferably from 80:20 to 70:30, and determining whether any objects larger than 150 nm are observed using a conventional microscope, preferably an Olympus IX71 conventional microscope, equipped with 100× oil objective.
With respect to the amphiphilic compounds being immiscible with a combination of the amphiphilic surfactant system and water, the amphiphilic compounds can form a separate phase from the amphiphilic surfactant system in water at 25° C. […]
The interfacial tension was measured using Sigma 701 tensiometer, and compatibility was observed using Olympus IX71 conventional microscope equipped with 100× oil objective, as described above.

Bounds are passed on as bounds.

Regarding `CCCCCCCCCCCCCCCCCC(=O)OCC[N+](C)(C)CCOC(=O)CCCCCCCCCCCCCCCCC.[Cl-]` [DEEDMAC, Dimethylbis[2-[(1-oxooctadecyl)oxy]ethyl]ammonium chloride], the solubility in water in data set [1] is given as under 1 wt %). On to `CCCCCCCCCC[N+](C)(C)CCCCCCCCCC.[Cl-]` [Maquat 4450, didecyldimethylammonium chloride], for which the “solubility in water (in words)” value in data set [1] is recorded as “high water solubility”.

`CCCCCCCCCCCCCOC(=O)CC(C(=O)OCCCCCCCCCCCCC)S(=O)(=O)O.[Na]` (stereo not shown) [Sodium bis(tridecyl) sulfosuccinate]: the solubility in water in data set [1] was under 1 wt %).

Take “sodium laureth sulfate [sodium laureth sulfate (SLES)]”: in data set [2], the “visual appearance (FIG. 2)” value is “transparent, and therefore, no phase separation”.
